Results taken from article PMC9945408 (Food Chemistry: X, 2023).

Biological target: T1, indoleamine 2,3-dioxygenase 1 (IDO1) (Homo sapiens, UniProt P14902)
Assay: % inhibition at […], capillary electrophoresis enzyme assay
Format: biochemical

T1 sequence (P14902 whole entry): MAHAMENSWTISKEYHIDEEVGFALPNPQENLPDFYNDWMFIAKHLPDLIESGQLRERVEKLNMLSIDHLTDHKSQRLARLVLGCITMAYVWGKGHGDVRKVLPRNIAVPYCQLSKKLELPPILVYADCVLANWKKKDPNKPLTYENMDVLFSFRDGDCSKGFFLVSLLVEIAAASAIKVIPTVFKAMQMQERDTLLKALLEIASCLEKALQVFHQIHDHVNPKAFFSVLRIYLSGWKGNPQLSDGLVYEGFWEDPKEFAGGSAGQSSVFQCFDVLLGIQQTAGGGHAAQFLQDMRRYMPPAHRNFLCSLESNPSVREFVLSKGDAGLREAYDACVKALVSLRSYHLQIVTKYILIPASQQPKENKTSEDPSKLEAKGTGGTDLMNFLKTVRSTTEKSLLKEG

Row | SMILES | inhibition at 100 µM [%]
1 | COc1cc(/C=C/C(=O)O[C@@H]2C[C@](O)(C(=O)O)C[C@@H](O)[C@H]2O)ccc1O [compound 6, 5-O-Feruloylquinic acid] | 12.7
2 | O=C(/C=C/c1ccc(O)c(O)c1)O[C@H]1[C@H](O)C[C@](O)(C(=O)O)C[C@H]1O [compound 3, Cryptochlorogenic acid] | 11.8
3 | O=C(/C=C/c1ccc(O)c(O)c1)O[C@@H]1C[C@@](O)(C(=O)O)C[C@@H](O)[C@@H]1O [compound 1, Neochlorogenic acid] | 10.9

Next, values leading:

Row | inhibition at 100 µM [%] | SMILES
4 | 10.9 | O=C(/C=C/c1ccc(O)c(O)c1)O[C@@H]1[C@H](O)C[C@@](O)(C(=O)O)C[C@H]1OC(=O)/C=C/c1ccc(O)c(O)c1 [compound 10, Isochlorogenic acid C]
5 | 19.1 | O=C(/C=C/c1ccc(O)c(O)c1)O[C@H]1[C@H](O)C[C@](O)(C(=O)O)C[C@H]1OC(=O)/C=C/c1ccc(O)c(O)c1 [compound 8, Isochlorogenic acid B]
6 | 16.4 | COc1cc(/C=C/C(=O)O[C@@H]2C[C@@](O)(C(=O)O)C[C@@H](O)[C@@H]2O)ccc1O [compound 4, 3-O-Feruloylquinic acid]

Biological target: T1, indoleamine 2,3-dioxygenase 1 (IDO1)
Assay: capillary electrophoresis enzyme assay
Format: biochemical

Row | IC50 [µM] | SMILES
7 | 308 | O=C(/C=C/c1ccc(O)c(O)c1)O[C@@H]1C[C@](O)(C(=O)O)C[C@@H](O)[C@H]1O [compound 2, Chlorogenic acid]
8 | 114 | COc1cc(/C=C/C(=O)O)ccc1O [compound 7, Ferulic acid]
